Assay results: patent US4227002A, “Halo-A-23187 derivatives” (Eli Lilly and Company, priority 1978, dated 1980)
Entries after “also recorded” stand apart in the source; their conditions may differ.

Legend:
[1] = test system: Staphylococcus aureus (H-Heatley strain, NRRL B-314); experiment: antibacterial bioassay (J. E. Westhead); assay type: cell-based
Excerpt: The compounds of this invention are useful antibacterial agents. In this aspect, these compounds may be used in the same manner in which the parent antibiotic is used, as described in U.S. Pat. No. 3,923,823. A bioassay for the antibacterial activity of A-23187 has been described by J. E. Westhead in Antimicrobial Agents and Chemotherapy 11 (5), 916-918 (1977). The test organism for this bioassay is Staphylococcus aureus (H-Heatley strain, NRRL B-314).

[2] = molecular target: cation transport ATPase in liver mitochondria; experiment: inhibition of cation transport ATPase in liver mitochondria, in vitro; assay type: biochemical
Excerpt: In yet another aspect, the compounds of this invention are active as inhibitors of the enzyme ATPase. ATPase, an alkali-metal-sensitive enzyme found in cell membranes, is involved in the energy necessary for active transport. "Active transport" refers to the energy-requiring series of operations whereby intracellular and extracellular fluids maintain their compositions. Inhibitors of ATPase reduce the energy required for active transport. Table V summarizes the results of in vitro tests measuring inhibition of cation transport ATPase in liver mitochondria [measured as half effective concentration (Ic 50) in mcg/ml].

mice = experiment: acute toxicity in mice, intraperitoneal; assay type: in vivo; details: intraperitoneally
Method: (§1) The compounds of the present invention are, in general, less toxic than the parent antibiotic. Table II summarizes the acute toxicities of representative compounds in mice, expressed as LD50, when the compounds are administered intraperitoneally.

[3] = test system: isolated guinea-pig atria; experiment: cardiac contractility in isolated guinea-pig atria; details: 10^-5 molar
Excerpt: The compounds of this invention are also potential cardiotonic agents. […] Response to this test is expressed as a percentage of the maximal contractile tension that could be elicited by a challenge dose of norepinephrine (10^-4 M). For a more detailed description of this test, see U.S. Pat. No. 3,985,893. In this test, 4-bromo-A-23187 free acid and its Mg^++ salt, each at a 10^-5 molar concentration, produced mean increases in contractile tension of 48 and 59 percent, respectively.

Bovine Sperum = details: bovine sperm; untreated: 2
[4] = acute toxicity in mice, intraperitoneal; assay type: in vivo; details: mouse, in vivo, ip, intraperitoneally
Method: as §1

bovine spermatozoa = experiment: Ca^++ influx induced in bovine spermatozoa, inhibition by Mg^++; assay type: cell-based; details: for Ca^++ Influx: bovine spermatozoa
Excerpt: The compounds of this invention affect ion transport with altered selectivities compared to the parent compound.

Cuinea Pig Sperm = experiment: effect on acrosome reaction, guinea pig sperm; assay type: cell-based; details: untreated: 110
Excerpt: Table IV summarizes the effect of an illustrative compound of this invention on mammalian sperm motility and acrosome reaction.

mammalian sperm [5] = details: cited from earlier work
mammalian sperm [6] = details: cited from earlier work; remark: listed apart in the source
[7] = cited from earlier work
[8] = ATPase induced by K^+ monazomycin

SMILES: CNc1c(Br)cc2oc(CC3OC4(CCC3C)OC(C(C)C(=O)c3cc(Br)c[nH]3)C(C)CC4C)nc2c1C(=O)O (stereo not drawn) [4,23-dibromo-A-23187 (free acid), 6-bromo-5-(methylamino)-2-[[3β,9α,11β-trimethyl-8-[1α-methyl-2-oxo-2-(4-bromo-1H-pyrrol-2-yl)ethyl]-1,7-dioxaspiro[5.5]undec-2β-yl]methyl]-4-benzoxazolecarboxylic acid]
- Bioassay [1]: 940 µg/mL
- half effective concentration (Ic 50) ([2]; ATPase induced by CaCl2): 0.9 µg/mL
- half effective concentration (Ic 50) [2, 8]: 0.5 µg/mL

SMILES: CNc1ccc2oc(CC3OC4(CCC3C)OC(C(C)C(=O)c3cc(Br)c[nH]3)C(C)CC4C)nc2c1C(=O)[O-].CNc1ccc2oc(CC3OC4(CCC3C)OC(C(C)C(=O)c3cc(Br)c[nH]3)C(C)CC4C)nc2c1C(=O)[O-].[Mg+2] (stereo not drawn) [4-bromo-A-23187 (Mg complex)]
- LD50 (mice): 18.75 mg/kg × 1
- mean increase in contractile tension, percentage of the maximal contractile tension elicited by norepinephrine (10^-4 M) [3]: 59%

SMILES: CNc1c(Br)cc2oc(CC3OC4(CCC3C)OC(C(C)C(=O)c3ccc[nH]3)C(C)CC4C)nc2c1C(=O)O (stereo not drawn) [4-bromo-A-23187 (free acid), 6-bromo(or chloro)-5-(methylamino)-2-[[3β,9α,-11β-trimethyl-8-[1α-methyl-2-oxo-2-(1H-pyrrol-2-yl)ethyl]-1,7-dioxaspiro[5.5]undec-2β-yl]-methyl]-4-benzoxazolecarboxylic acid]
- Bioassay [1]: 835 µg/mL
- Motility Index (Bovine Sperum): 5
- LD50 [4]: 11.9 mg/kg
- Ca^++ Influx (bovine spermatozoa; [Mg^++ ]/[Ca^++ ] 0): 3.4 nmole Ca^++ min × mg protein
- Ca^++ Influx (bovine spermatozoa; [Mg^++ ]/[Ca^++ ] 20): 3.4 nmole Ca^++ min × mg protein
- Ca^++ Influx (bovine spermatozoa; [Mg^++ ]/[Ca^++ ] 40): 3.4 nmole Ca^++ min × mg protein
- Ca^++ Influx (bovine spermatozoa; [Mg^++ ]/[Ca^++ ] 80): 0.5 nmole Ca^++ min × mg protein
- effectiveness of Mg^++ in inhibiting the induced influx of Ca^++ (in words) (bovine spermatozoa; compared with comparable dosage of A-23187): much less effective
- activation at 10 µM ([3]; Cavia porcellus, read-out: mean increase in contractile tension, percentage of the maximal contractile tension elicited by norepinephrine (10^-4 M)): 48%
- half effective concentration (Ic 50) ([2]; ATPase induced by CaCl2): 0.9 µg/mL
- half effective concentration (Ic 50) [2, 8]: 0.3 µg/mL
- Time Until Acrosome Reaction (Cuinea Pig Sperm): 30 min

SMILES: CNc1ccc2oc(CC3OC4(CCC3C)OC(C(C)C(=O)c3cc(Cl)c[nH]3)C(C)CC4C)nc2c1C(=O)[O-].CNc1ccc2oc(CC3OC4(CCC3C)OC(C(C)C(=O)c3cc(Cl)c[nH]3)C(C)CC4C)nc2c1C(=O)[O-].[Mg+2] (stereo not drawn) [4-chloro-A-23187 (Mg complex)]
- LD50 (mice): 29.8 mg/kg × 1

SMILES: CNc1c(Cl)cc2oc(CC3OC4(CCC3C)OC(C(C)C(=O)c3ccc[nH]3)C(C)CC4C)nc2c1C(=O)O (stereo not drawn) [4-chloro-A-23187 (free acid), 6-bromo(or chloro)-5-(methylamino)-2-[[3β,9α,-11β-trimethyl-8-[1α-methyl-2-oxo-2-(1H-pyrrol-2-yl)ethyl]-1,7-dioxaspiro[5.5]undec-2β-yl]-methyl]-4-benzoxazolecarboxylic acid]
- Bioassay [1]: 298 µg/mL
- LD50 [4]: 10.5 mg/kg
- half effective concentration (Ic 50) ([2]; ATPase induced by CaCl2): 10 µg/mL
- half effective concentration (Ic 50) [2, 8]: 0.2 µg/mL

SMILES: CNc1c(Br)cc2oc(CC3OC4(CCC3C)OC(C(C)C(=O)c3[nH]c(Br)c(Br)c3Br)C(C)CC4C)nc2c1C(=O)O (stereo not drawn) [6-bromo-5-(methylamino)-2-[[3β,9α,11β-trimethyl-8-[1α-methyl-2-oxo-2-(3,4,5-tribromo-1H-pyrrol-2-yl)ethyl]-1,7-dioxaspiro[5.5]undec-2β-yl]methyl]-4-benzoxazolecarboxylic acid]
- Bioassay [1]: 585 µg/mL

SMILES: CNc1ccc2oc(CC3OC4(CCC3C)OC(C(C)C(=O)c3ccc[nH]3)C(C)CC4C)nc2c1C(=O)O (stereo not drawn) [A-23187 (free acid), reference compound]
- induction of acrosome reaction (in words) (mammalian sperm [5]): induces the acrosome reaction
- Bioassay [1]: 1060 µg/mL
- Motility Index (Bovine Sperum): 4
- LD50 [4]: 5.8 mg/kg
- Ca^++ Influx (bovine spermatozoa; [Mg^++ ]/[Ca^++ ] 0): 3.5 nmole Ca^++ min × mg protein
- Ca^++ Influx (bovine spermatozoa; [Mg^++ ]/[Ca^++ ] 5): 2.0 nmole Ca^++ min × mg protein
- Ca^++ Influx (bovine spermatozoa; [Mg^++ ]/[Ca^++ ] 10): 1.2 nmole Ca^++ min × mg protein
- Ca^++ Influx (bovine spermatozoa; [Mg^++ ]/[Ca^++ ] 20): 0.5 nmole Ca^++ min × mg protein
- activation of sperm motility (in words) (mammalian sperm [6]): activates the motility
- half effective concentration (Ic 50) ([2]; ATPase induced by CaCl2): 0.5 µg/mL
- half effective concentration (Ic 50) [2, 8]: 0.5 µg/mL
- Time Until Acrosome Reaction (Cuinea Pig Sperm): 30 min
- selectivity for transport of divalent over monovalent cations (in words) [7]: substantially selective for the transport of divalent over monovalent cations; also recorded: not complete
